The values below come from patent US20230303647A1, “CYCLIC CHEMERIN-9 DERIVATIVES” (priority 2020, published 2023).

One data set is described as follows: in vitro. The settings on record: human, plasma.
The target of data set [1] is T1, CMKLR1 (Homo sapiens, UniProt Q99788).
T1 sequence (Q99788 1-373): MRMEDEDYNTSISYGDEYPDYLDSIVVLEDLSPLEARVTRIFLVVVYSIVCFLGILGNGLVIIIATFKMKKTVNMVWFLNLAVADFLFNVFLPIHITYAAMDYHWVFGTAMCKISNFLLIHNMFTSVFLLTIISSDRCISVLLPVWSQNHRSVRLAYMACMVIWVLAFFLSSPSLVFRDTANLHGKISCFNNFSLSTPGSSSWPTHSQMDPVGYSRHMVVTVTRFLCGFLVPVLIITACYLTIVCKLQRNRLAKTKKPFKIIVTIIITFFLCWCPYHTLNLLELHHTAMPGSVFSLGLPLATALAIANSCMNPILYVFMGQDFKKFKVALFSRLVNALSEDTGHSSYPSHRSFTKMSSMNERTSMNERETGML
Put plainly: Fluorescence microscopy of CMKLR1 internalization and arrestin 3 recruitment. Type of data set: cell-based. Also on record: expressed in transfected cells; host or cells: HEK293. To be noted: HEK293 cells, 1 μM peptide. How it is done: Ibidi 15μ-slides were coated with poly D-lysine before cell seeding. Cells were washed with DPBS prior to detachment with 1 ml trypsin/EDTA. […] The cell suspension was diluted to 140,000 cells/200 μl, which were seeded. Incubation was carried out overnight at 37° C. Afterwards, cells were transiently transfected. Plasmid DNA of hCMKLR1_eYFP_GαΔ6qi4myr_pV2 (0.9 μg) and mCherry_Arr3_pcDNA3 (0.1 μg) and 8 μl Lipofectamine were separately added to 100 μl DMEM/Ham's F12 and incubated for 10 min before unification and incubation at RT for 20 min. Incubation was carried out overnight at 37° C. […] The medium was replaced by 200 μl of OptiMEM and the to status was documented. The OptiMEM was then replaced by 200 μl of 1 μM peptide in OptiMEM. Fluorophore excitation was analyzed using different filters, depending on the emission wavelength of the fluorophore and the time of exposure was adjusted to each fluorophore individually. All images were processed identically with the AxioVision software (Carl Zeiss AG, Oberkochen, Germany).
To verify the arrestin-recruitment and analyze the internalization of the CMKLR1 receptor itself, HEK293 cells were used and transiently transfected with fluorescent labeled variants of the two molecules.
FIG. 2: Internalization of CMKLR1 and arrestin 3 recruitment. HEK293 cells expressing the hCMKLR1 (green) and arrestin 3 (Arr3; red) due to transient transfection were used for the internalization studies.
Background: Recruitment of arrestin is a read-out of receptor activation apart from second messengers.

The target of data set [2] is T1, CMKLR1. Put plainly: BRET-based arrestin 3 recruitment assay. To be noted: for arrestin 3 recruitment to the CMKLR1 (in words): BRET, compared with chemerin-9. Background: Bioluminescence resonance energy transfer reports proximity on the nanometre scale.
Experimental: HEK293 cells were transiently transfected using 75 cm^2 cell culture flasks with cell monolayers (confluency of ˜80%). Plasmid DNA of the C-terminally eYFP tagged human CMKLR1 and the chimeric G protein GαΔ6qi4myr in a pVitro2 vector (7.8 μg) and Renilla-luciferase 8-tagged Arrestin 3 in pcDNA3 (0.2 μg) and 24 μl MetafectenePro were separately added to 900 μl DMEM/Ham's F12 and incubated for 10 min before unification and incubation at RT for 20 min. […] The plasmid solution was added and cells were incubated overnight before seeding. Cell seeding was carried out in white 96-well polystyrene cell culture microplates, coated with poly-D lysine. […] Afterwards, the cells were incubated overnight at 37° C. The assay was performed under unsterile conditions. […] Afterwards, the cells were stimulated with the peptides in different concentrations (10^−5 to 10^−12 M) dissolved in BRET buffer. 50 μl of the peptide dilution were used for cell stimulation. Buffer without peptide was used as a negative control. […] The values of the negative control were subtracted, non-linear regression was calculated using GraphPad Prism. […] All measurements were performed in four technical replicates, all experiments were repeated at least twice.
The bioluminescence resonance energy transfer (BRET) assay was used to determine the potency of cyclic chemerin variants to recruit arrestin 3 to the CMKLR1 receptor after stimulation. HEK293 cells were transiently transfected with CMKLR1 receptor fused with eYFP fluorophore and Arrestin 3 tagged with Rluc8 luciferase. The transfected cells were seeded, incubated with the luciferase substrate coelenterazine-h and stimulated with different peptide concentrations, resulting in measurable BRET signals.
Data set [3] addresses T1, CMKLR1. Put plainly: Ca2+ mobilization assay (G protein-mediated signaling). For orientation: Calcium flux is commonly read through the fluorescence of an indicator in the cells.
Experimental: COS-7 cells were transfected in 75 cm^2 cell culture flasks with 12 μg of the hCMKLR1_eYFP_GαΔ6qi4myr_pV2 plasmid overnight using Metafectene Pro. Transfected cells were seeded in 96 well plates (100 μL cell suspension in DMEM+10% FBS/well) and incubated overnight. The following day, the Ca^2+-mobilization was performed as described previously. […] All experiments were performed in triplicates, each experiment was repeated at least twice. Nonlinear regression was calculated using GraphPad Prism 5.

SMILES strings stand for the structures. Entries after “also recorded” stand apart in the source; their conditions may differ. Where a SMILES comes first, the peptide text is derived from it. Bridges are numbered along the chain shown (N, C = ends). [ ]: non-standard residue; d: D form. PEG4 = NCCOCCOCCOCCOCCC(=O)O; d(hCys) = N[C@H](CCS)C(=O)O

Experimental for in vitro: Investigation of peptide stability in blood plasma was carried out as described previously. […] Samples taken at the respective time points were added to a solution of 0.1% SDS in ACN/EtOH (1:1). After incubation at −20° C. for 20 min, the supernatant was transferred to a new tube and incubated again at −20° C. for at least 3 h. The solution was filtered by centrifugation using Costar Spin-X tubes (0.22 μm) and the filtrate was analyzed by RP-HPLC on a VariTide RPC. […] Peaks were integrated and the peak containing the intact peptide was normalized to the sample taken at t=0 min (100%).

Usually half-life stands for how long it takes for the measured level to halve. Lower therefore signals rapid decline. On to `C[C@H](NC(=O)[C@H](Cc1ccccc1)NC(=O)[C@H](CCC(N)=O)NC(=O)CNC(=O)[C@@H]1CCCN1C(=O)[C@H](Cc1ccccc1)NC(=O)[C@H](Cc1ccc(O)cc1)NC(=O)c1ccc(C(=O)O)c(-c2c3ccc(=[N+](C)C)cc-3oc3cc(N(C)C)ccc23)c1)C(=O)N[C@@H](Cc1ccccc1)C(=O)N[C@@H](CO)C(=O)O` [$$ 2, Tam-chemerin-9], for which the half-life in “in vitro” is < 12 min.

What is called EC50 is the midpoint of the concentration-response curve. Low values mean a more potent agent, high ones a less potent agent. Turning to `C[C@@H]1NC(=O)[C@H](Cc2ccccc2)NC(=O)[C@H](CCC(N)=O)NC(=O)[C@H](NC(=O)[C@@H]2CCCN2C(=O)[C@H](Cc2ccccc2)NC(=O)[C@H](N)Cc2ccc(O)cc2)CCSSC[C@@H](C(=O)O)NC(=O)[C@H](Cc2c[nH]c3ccccc23)NC1=O` [$$ 15, [y1,x4,W8,C9]-chemerin-9] (H-[dY]FP[d(hCys)]QFAWC-OH; disulfide 4-9), the “arrestin 3 recruitment and internalization of the CMKLR1” value on CMKLR1 [1] (30 min stimulation) was “neither internalization of the hCMKLR1 nor arrestin 3 recruitment could be detected”. In addition, the “arrestin 3 recruitment to the CMKLR1 (in words)” value on CMKLR1 [2] is given as “no longer able to induce arrestin 3-recruitment; also recorded: completely abolishes arrestin recruitment”. In addition, the “G protein signaling activity (in words)” value at CMKLR1 [3] (Ca2+ mobilization assay) is listed as “significantly decreased activity”. Moreover, the EC50 at CMKLR1 [3] (pEC50 ± SEM, COS-7 cells transfected with hCMKLR1_eYFP_GαΔ6qi4myr, normalized to chemerin-9) is 207 nM.

Usually Emax stands for the maximal effect, on the per cent scale that the assay sets. Regarding `C[C@@H]1NC(=O)[C@H](Cc2ccccc2)NC(=O)[C@H](CCC(N)=O)NC(=O)[C@H](NC(=O)[C@@H]2CCCN2C(=O)[C@H](Cc2ccccc2)NC(=O)[C@H](Cc2ccc(O)cc2)NC(=O)CCOCCOCCOCCOCCN)CCSSC[C@@H](C(=O)O)NC(=O)[C@H](Cc2c[nH]c3ccccc23)NC1=O` [$$ 18, EG4-[x4,W8,C9]-chemerin-9] (H-[PEG4]YFP[d(hCys)]QFAWC-OH; disulfide 5-10), the “arrestin 3 recruitment” value at CMKLR1 [1] is given as “good arrestin 3 recruitment”. On CMKLR1 [1] (compared to chemerin-9), the receptor internalization entry is “slightly lower receptor internalization”. Besides, the “arrestin 3 recruitment to the CMKLR1 (in words)” value on CMKLR1 [2] is reported as “accepted”. Besides, the EC50 was 418 nM on CMKLR1 [2] (EC50, HEK293 cells, CMKLR1-eYFP and Rluc8-arrestin 3, 15 min after agonist addition); 193 nM on CMKLR1 [3]. Also, the maximal response (Emax) on CMKLR1 [2] (read-out: Emax [%] ± SEM) came to 69 ± 8%.
